Test results published in publication PMC8843131, “Inhibition studies of bacterial α-carbonic anhydrases with phenols” (Journal of Enzyme Inhibition and Medicinal Chemistry, 2022).
Where two headings read alike, the source gives them in different places.

Columns and labels:
NgCAα = target: T1, NgCAα (Neisseria gonorrhoeae, UniProt Q50940); test: stopped-flow CO2 hydrase assay; type: biochemical
T1 construct: gene cah; recombinant, obtained in-house as described earlier
T1 sequence (Q50940 27-252): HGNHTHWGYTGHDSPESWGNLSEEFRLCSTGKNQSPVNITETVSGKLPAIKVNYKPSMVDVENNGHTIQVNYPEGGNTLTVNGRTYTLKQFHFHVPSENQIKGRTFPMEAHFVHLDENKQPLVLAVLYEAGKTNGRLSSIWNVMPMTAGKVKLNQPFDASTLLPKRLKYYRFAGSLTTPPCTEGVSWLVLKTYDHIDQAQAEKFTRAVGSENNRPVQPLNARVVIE

VchCAα = target: T2, VchCAα (Vibrio cholerae, UniProt Q9KMP6); test: stopped-flow CO2 hydrase assay; type: biochemical; conditions: read-out: KI (μM)^a / VchCAα; CO2 substrate 1.7-17 mM, 10 mM HEPES pH 7.4, 10 mM NaClO4, 15 min preincubation
T2 construct: gene VC_A0274
T2 sequence (Q9KMP6 21-239 limits assumed): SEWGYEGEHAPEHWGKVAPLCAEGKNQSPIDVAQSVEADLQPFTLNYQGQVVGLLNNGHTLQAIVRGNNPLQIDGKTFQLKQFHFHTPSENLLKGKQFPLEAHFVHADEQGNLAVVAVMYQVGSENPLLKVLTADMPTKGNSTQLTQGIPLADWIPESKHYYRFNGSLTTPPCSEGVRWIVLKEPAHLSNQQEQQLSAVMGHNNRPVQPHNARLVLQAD

Oc1ccccc1 [compound 1, phenol]
Ki (NgCAα): 0.9 µM | Ki (VchCAα): 0.8 µM

Oc1ccc(O)c(O)c1 [compound 5, 5]
Ki (NgCAα): 3.9 µM | Ki (VchCAα): 9.4 µM

O=C(O)c1c(O)cccc1O [compound 19, 19]
Ki (NgCAα): 33.1 µM | Ki (VchCAα): 49.6 µM

Nc1ccc(O)cc1 [compound 7, 7]
Ki (NgCAα): 6 µM | Ki (VchCAα): 10.6 µM

CC(=O)Nc1ccc(O)cc1 [compound 8, paracetamol]
Ki (NgCAα): 1.5 µM | Ki (VchCAα): 7 µM

O=C(O)c1ccc(O)c(O)c1 [compound 18, 3,4-dihydroxybenzoic acid]
Ki (NgCAα): 9.3 µM | Ki (VchCAα): 13.8 µM

O=C(O)/C=C/c1ccc(O)c(O)c1 [compound 22, caffeic acid]
Ki (NgCAα): 76 µM | Ki (VchCAα): 78.1 µM

Oc1cc(F)cc(F)c1 [compound 16, 3,5-difluorophenol]
Ki (NgCAα): 3.7 µM | Ki (VchCAα): 4.9 µM

O=C(O)c1cc(O)ccc1O [compound 20, 20]
Ki (NgCAα): 16.3 µM | Ki (VchCAα): 7.3 µM

Oc1cccc(O)c1 [compound 3, 3]
Ki (NgCAα): 2.2 µM | Ki (VchCAα): 8.6 µM

Nc1cc(O)ccc1Cl [compound 13, 3-amino-4-chlorophenol]
Ki (NgCAα): 0.8 µM | Ki (VchCAα): 0.7 µM

O=C(O)/C=C/c1ccc(O)cc1 [compound 21, 21]
Ki (NgCAα): 10 µM | Ki (VchCAα): 40.5 µM

O=C(O)c1ccccc1O [compound 10, salicylic acid]
Ki (NgCAα): 43.8 µM | Ki (VchCAα): 39.1 µM

Oc1ccc(F)cc1F [compound 15, 15]
Ki (NgCAα): 35.9 µM | Ki (VchCAα): 36.6 µM

OCc1ccc(O)cc1 [compound 12, 4-hydroxy-benzylalcohol]
Ki (NgCAα): 0.6 µM | Ki (VchCAα): 1.2 µM

Nc1ccc(O)c(Cl)c1 [compound 14, 14]
Ki (NgCAα): 71.5 µM | Ki (VchCAα): 81.6 µM

N#Cc1ccc(O)cc1 [compound 9, 4-cyanophenol]
Ki (NgCAα; CO2 substrate 1.7-17 mM, 10 mM HEPES pH 7.4, 10 mM NaClO4, 15 min preincubation): 24.2 µM | Ki (VchCAα): 17.2 µM

Oc1ccc(O)cc1 [compound 4, 4]
Ki (NgCAα): 4.7 µM | Ki (VchCAα): 8.4 µM

O=C(O)c1ccc(O)cc1 [compound 11, 4-hydroxy-benzoic acid]
Ki (NgCAα): 8.7 µM | Ki (VchCAα): 3.5 µM

Nc1cccc(O)c1 [compound 6, 3-aminophenol]
Ki (NgCAα): 1.7 µM | Ki (VchCAα): 3.9 µM

Oc1ccccc1O [compound 2, 2]
Ki (NgCAα): 5.3 µM | Ki (VchCAα): 20.3 µM
